Reference: US20240140949A1, “ANTI-CANCER PHARMACEUTICAL COMPOSITION FOR TARGETING HEAT SHOCK PROTEIN 70, CONTAINING INDOLOQUINAZOLIDINE ALKALOID” (SEOUL NATIONAL UNIVERSITY R & DB FOUNDATION, priority 2021, published 2024)

Experiments:
[1] = tested on: cancer cell; experiment: Cancer cell survival inhibitory activity (crystal violet assay); assay type: cell-based; settings: crystal violet assay (FIG. 19)
Protocol: (§1) The cancer cell lines were seeded in a 96-well plate at a density of 2×10^3 cells per well and cultured for 24 hours to allow the cells to attach. The cells were then treated with diluted drugs in media for 3 days and cell viability was assessed using MTT assay or crystal violet (CB) assay. For the MTT assay, MTT solution dissolved in PBS was added to achieve a final concentration of 500 μg/mL and incubated for 2-4 hours, after which the medium was removed and the formed formazan was dissolved in 100% DMSO, followed by measuring the absorbance at 570 nm. For the CB assay, the cultured cells were fixed with 100% methanol, stained with a 0.025% crystal violet solution, dissolved in 1% SDS solution, and the absorbance was measured at 570 nm. Cell viability was calculated as the percentage of absorbance change in drug-treated group compared to vehicle (DMSO) treated control group.

[2] = tested on: H1299 lung cancer cells; experiment: Cell viability (MTT assay) in H1299 cells; assay type: cell-based, human; settings: 100 nM, 3 days, MTT, compared with evodiamine and EV501-EV509 (FIG. 1)
Source text: Human lung cancer cell lines (H1299, H460, A549, H226B, and PC9), breast cancer cell line (MDA-MB-231), liver cancer cell line (Hep3B), kidney cancer cell line (786-0), prostate cancer cell lines (DU145 and PC-3), and mouse lung cancer cell line (Lewis Lung Carcinoma, LLC) were purchased from ATCC (American Type Culture Collection) or obtained from Dr. John V. Heymach of MD Anderson Cancer Center, USA. The human head and neck cancer cell line (UMSCC38) was obtained from Dr. Jeffrey N. Myers (MD Anderson Cancer Center, USA). Human colon cancer cell lines (HCT116 and HT-29) and glioblastoma cell line (U87MG) were obtained from Professor Sang Kook Lee (Seoul National University College of Pharmacy). The human kidney cancer cell line (Caki-1), and gastric cancer cell line (SNU-638) were purchased from the Korean Cell Line Bank. The chemotherapy-resistant cells [paclitaxel-resistant H460 cells (H460/PcR), paclitaxel-resistant H226B cells (H226B/PcR), cisplatin-resistant H1299 cells (H1299/CsR), pemetrexed-resistant H1299 cells (H1299/PmR)] and molecularly targeted anticancer therapy-resistant cells [erlotinib-resistant PC9 cells (PC9/ER)] were constructed by treating the respective anti-cancer drugs for more than three months. H1299, H460, H226B, PC9, Hep3B, 786-0, DU145, PC-3, HCT116, HT-29, SNU-638, chemotherapeutic resistant cells, and molecularly targeted anticancer therapy-resistant cells were cultured in RPMI 1640 media containing 10% fetal bovine serum (FBS) and antibiotics at 37° C. under 5% CO2 conditions, while MDA-MB-231, UMSCC38, U87MG, Caki-1 were cultured in DMEM media containing 10% FBS and antibiotics at 37° C. under 5% CO2 conditions. Cells were passaged 1-2 times per week.
as §1

[3] = tested on: tumors derived from lung cancer patients; experiment: Lung cancer patient-derived tumor xenograft growth in NOD/SCID mice; assay type: in vivo, mouse; settings: 20 mg/kg orally six times a week, vs control group (FIG. 7)
Protocol: (§2) H460 cells (5×10^6 cells/spot) or lung cancer patient-derived tumors were implanted into the flank of 6-week-old NOD/SCID mice, or LLC-Luc cells (5×10^5 cells/spot) were implanted into the flank of 8-week-old C57BL/6 mice to form tumors. When the tumor volume reached 50-100 mm^3, the mice were divided into control and experimental groups (with at least 6 mice assigned to each group), and the control group was administered with vehicle (10% DMSO and 40% PEG400 solution prepared in sterile distilled water), while the experimental group was administered with EV507 (20 mg/kg) six times a week orally. The major and minor axes of the tumor were measured, and the tumor size was measured at least 3-4 times a week, and the body weight was measured at least once a week to evaluate the toxicity of the drug. Also, the survival of C57BL/6 mice implanted with LLC-Luc cells was monitored to determine the survival curve. The tumor volume was calculated as (width)^2× length×0.5.

[4] = tested on: LLC-Luc tumors; experiment: Survival in LLC-Luc transplant allograft (lung metastasis) model; assay type: in vivo, mouse; settings: C57BL/6 mice, 20 mg/kg orally six times a week (FIG. 8)
Protocol: as §2
Moreover, it is known that in the LLC-Luc transplant allograft model that spontaneously generates pulmonary metastatic cancer, mouse mortality occurs due to the proliferation of transplanted LLC-Luc tumors and the formation of pulmonary metastatic cancer. In this allograft model, EV507 was administered to confirm its inhibitory effect on mouse mortality caused by tumor proliferation.

[5] = tested on: lung cancer cell; experiment: Cancer cell survival inhibitory activity (MTT assay) of EV501 to EV509; assay type: cell-based; settings: 0.5 μM (lowest concentration), MTT assay (FIG. 18)
Protocol: as §1

[6] = target: T1, Hsp70 protein (full length, N-terminal domain) (Homo sapiens, UniProt P0DMV8); experiment: Drug affinity responsive target stability (DARTS); assay type: binding; settings: up to 10 μM, proteinase K (FIG. 6)
T1 construct: 35 μg of Hsp70 full length, Hsp70 N-terminal, Hsp70 C-terminal proteins were treated with vehicle (DMSO)
Protocol: 35 μg of Hsp70 full length, Hsp70 N-terminal, Hsp70 C-terminal proteins were treated with vehicle (DMSO) or up to 10 μM of EV507 (final DMSO concentration: 1%) at 4° C. for 30 minutes, followed by a treatment with proteinase K (proteinase K:protein=1:100) at room temperature for 15 minutes. The reaction was terminated by adding a 5×SDS-PAGE sample buffer and boiling at 95° C. for 5 minutes, after which electrophoresis was performed with 8% SDS-PAGE. The proteins were transferred to a PVDF membrane, and the Western blot analysis method described above was performed.

T1 sequence (P0DMV8 2-641): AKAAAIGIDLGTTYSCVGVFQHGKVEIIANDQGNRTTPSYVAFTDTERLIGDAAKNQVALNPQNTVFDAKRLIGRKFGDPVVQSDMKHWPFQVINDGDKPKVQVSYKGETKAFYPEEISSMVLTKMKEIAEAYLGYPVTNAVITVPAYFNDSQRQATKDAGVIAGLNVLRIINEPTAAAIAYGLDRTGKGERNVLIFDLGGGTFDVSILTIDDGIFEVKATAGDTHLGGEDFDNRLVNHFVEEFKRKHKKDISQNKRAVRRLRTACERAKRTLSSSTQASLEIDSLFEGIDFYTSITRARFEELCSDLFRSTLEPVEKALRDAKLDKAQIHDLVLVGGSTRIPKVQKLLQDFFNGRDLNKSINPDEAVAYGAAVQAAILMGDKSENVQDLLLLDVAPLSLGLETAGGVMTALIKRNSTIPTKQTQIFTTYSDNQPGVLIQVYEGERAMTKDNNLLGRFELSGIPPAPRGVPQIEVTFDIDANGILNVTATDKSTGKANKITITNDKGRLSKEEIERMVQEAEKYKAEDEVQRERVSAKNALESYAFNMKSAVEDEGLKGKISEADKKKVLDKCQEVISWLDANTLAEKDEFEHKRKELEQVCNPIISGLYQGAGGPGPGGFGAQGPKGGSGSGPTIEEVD

Compound: C=CCN1c2ccccc2C(=O)N2CCc3c([nH]c4ccc(O)cc34)C21 (stereo not drawn) [EV507]
- cancer cell survival inhibitory activity [1]: excellent
- inhibition of cancer cell survival (cell viability) [2]: most excellent efficacy
- tumor growth [3]: significantly inhibited
- mouse mortality [4]: significantly reduced
- inhibition at 0.5 µM [5]: > 65%
- binding to Hsp70 protein, particularly the N-terminal domain [6]: binds
